The source of these data is patent US7842683B2, “Neurotherapeutic compositions and method” (Revaax Pharmaceuticals, LLC, priority 1999, dated 2010).

One data set deals with vasopressin V1A receptor. In words: Membrane binding assay, competition for I125 HO-LVA. Particulars: 1 μM, hamster liver membrane preparation. From the text: Vasopressin and serotonin are both critical neurotransmitters in the control of offensive aggression in male hamsters (Ferris et al., 1998). These two neurotransmitters also are implicated in the control of human aggression (Coccaro et al., 1998). Vasopressin facilitates aggressive behavior while serotonin inhibits aggression, in part, by inhibiting the activity of the vasopressin system. Blockade of vasopressin V1A receptors and stimulation of serotonin 5HT1A receptors in the anterior hypothalamus blocks offensive aggression (Ferris et al., 1999). […] To test this notion Mox was tested in a membrane binding assay for competition for the V1A receptor (Ferris et al., 1994) and in a receptor autoradiography assay for competition for the 5HT1A receptors (Ferris et al., 1999).

A further data set deals with male hamsters. In words: Radial arm maze (spatial memory). Type of data set: in vivo. The following applies: 50 μg/kg. The text has this: The radial arm maze is one of the most commonly used methods for testing spatial learning and memory in rodents. Developed by Olton and co-workers (1976), it provides the simultaneous choice of several alternative paths for the test subject. Animals must learn which locations provide food (place learning) using visuospatial cues. Experimental Trials: The experimental trials consist of three phases (described below). The arms of the maze are numbered clock-wise from one to seven with arm number one being the arm furthest to the right side of the maze. All trials are […]. When not being tested, all hamsters have unlimited access to water. […] Trials within all the phases are conducted on successive days. Phase One: Phase One consists of five 15 min trials. Prior to the beginning of each of the five trials in Phase One, four sunflower seeds are placed at the ends of arms one, two, and three. Arms four, five, six, and seven remain empty. Phase Two: Phase Two of the experimental trials are identical to Phase One except that the seeds are placed in arms two, four, and seven. […] Coding of Behaviors: An arm entry was scored if all four paws of a hamster crossed an arm threshold. A full arm entry into an arm is scored if a hamster's snout touches the top of the block at the end of an arm or if their snout passes the block. […] In addition, the number of seeds pouched by the hamsters was scored. […]

For a further data set, the system named is gram-negative meningitis. The following applies: 241 of 260; 4 g every 8 hrs for 2-3 weeks; cited from earlier work.
The subject of data set [1] is hamsters. Nature of the data set: Olfactory discrimination: latency to find hidden sunflower seeds. Type of data set: in vivo, Syrian golden hamsters (Mesocricetus auratus). Particulars: 50 μg/kg. As for the experimental part:
Sixteen animals were treated with vehicle or 50 μg/kg Mox and tested for olfactory discrimination by measuring their latency to find hidden sunflower seeds (FIG. 5). The injections were counterbalanced with each animal receiving each treatment. Prior to testing animals were fasted for 24 hrs. Ninety minutes after injection animals were briefly taken from their home cage while six sunflower seeds were buried under the bedding in one corner. Animals were placed back into their home cage and scored for the latency to find the seeds in a ten min observation period. […] In fact, not one of the sixteen animals consumed all of the seeds following saline as compared to all animals treated with Mox.
Six animals received an intracerebroventricular injection of vehicle or 1 mg/kg PPP and tested for olfactory discrimination by measuring their latency to find hidden sunflower seeds (FIG. 16). The injections were counterbalanced with each animal receiving each treatment. Prior to testing animals were fasted for 24 hrs. Sixty min. After injection animals were briefly taken from their home cage while six sunflower seeds were buried under the bedding in one corner. Animals were placed back into their home cage and scored for the latency to find the seeds in a five min. Observation period.

The subject of data set [2] is hamsters. In words: Motor activity in an open field (hamsters). Format: in vivo, Syrian golden hamsters (Mesocricetus auratus). The following applies: 50 μg/kg, 90 min after injection. The protocol:
Six animals were tested for general motor activity in an “open field” following treatment with saline vehicle or 50 μg/kg Mox (FIG. 5). The study was counter balanced with each animal receiving each treatment. Ninety minutes after injection a single animal was placed into a large clean Plexiglas cage (48×32×40 cm) devoid of any bedding. This open field was delineated into equal quadrants by tape on the underside of the cage. Animals were scored for motor activity by counting the number of quadrants traversed in 1 min.

The subject of data set [3] is Corticotropin Releasing Factor receptor. Nature of the data set: NOVASCREEN CRF binding assay. Particulars: 100 nM. As for the experimental part: [table] Corticotropin releasing hormone (CRH or CRF as shown on the following page) is a critical neurohormone in the regulation of stress. Since Mox suppresses impulsivity, aggression, and anxiety while enhancing learning and memory it may be acting to reduce stress. For this reason, Mox was tested by NOVASCREEN in a CRF binding assay.

Data set [4] concerns adolescent male rhesus macaques. In words: Social behavior in non-human primates. Type of data set: in vivo. The following applies: 1 mg/kg IM. As for the experimental part: Eight, two year old adolescent male rhesus macaques were tested with Mox. Animals were raised with their mothers in a group setting at a field station. At one year of age, they were transferred to individual cages. Each day thereafter, they were paired housed for two-three hrs. The adolescent partners were always the same. […] The display of social behaviors in this arrangement are very robust because of the limited amount of time the monkeys spend together. During the experiment the monkeys were paired in the “play-cage” where they were video taped for one hour. The study was designed so that behavioral data were obtained for each monkey under Mox and vehicle treatment. The treatment was an ABA type schedule of administration: Day 1—one member of each pair received 0.9% NaCl vehicle, Day 2—drug, Day 3—vehicle. Only one member of a pair was injected on a test day. The other member of a pair was injected a week later according to the same ABA schedule. […] Animals were video taped sixty minutes after injection for a one hr observation period. Animals were scored for over forty different behaviors (Winslow et al., 1988). Only twenty-eight are listed on TABLE I. The unreported behaviors, e.g., self-bites, vocalizations, clinging, mounts, escapes, self grooming were so infrequent that they were omitted from the analysis. Paired t-test was run for each behavioral measure.

Data set [5] deals with gram negative beta-lactamase enzymes. Particulars: cited from earlier work.
The conditions of data set [6]: cited from earlier work.
Another data set has as its system bacteria. Particulars: cited from earlier work.

For the compound `CO[C@@]1(NC(=O)C(C(=O)O)c2ccc(O)cc2)C(=O)N2C(C(=O)O)=C(CSc3nnnn3C)CO[C@@H]21` (stereo partly drawn) [Mox, 7-β-[2-carboxy-2-(4-hydroxyphenyl)acetamido]-7α-methoxy-3-[[(1-methyl-1H-tetrazol-5-yl)thio]methyl]-1-oxa-1-dethia-3-cephem-4-carboxylic acid], in the data set with vasopressin V1A receptor, the “displacement of I125 HO-LVA binding” value was “did not significantly displace”. In addition, the “number of seeds discovered after reversing the orientation of the maze” value in the data set on male hamsters was “significantly increased”. In addition, the “patients with satisfactory response to antibiotic therapy” value with gram-negative meningitis is on record as 93%. For the same compound, the “time to consume all seeds” value in the data set on hamsters [1] is “less than five”. In addition, in the data set with hamsters [1] (90 min, fasted 24 hrs), the “latency to find the seed” value is “significantly (p<0.001) reduced”. For the same compound, in the data set on hamsters [2], the “open field activity (quadrants traversed in 1 min)” value was “no significant difference”. For the same compound, the “effect in the CRF binding assay” value in data set [3] was “no effect”. Moreover, the allogrooming result in data set [4] is on record as “no effect”. Moreover, the “duration of play fighting” value in [4] (sixty minutes after injection, one hr observation) is “significantly reduced”.
In the case of `O=C(O)[C@H]1/C(=C/CO)O[C@@H]2CC(=O)N21` [CLAV, Clavulanic acid], in data set [5], the “binding affinity for the beta-lactamases” value is “very high” and the “concentration range inhibiting gram negative beta-lactamase enzymes” value was 15 to 34 nM. Moreover, in data set [6] (in vivo), the CSF/plasma ratio entry is recorded as “around 0.25”, the elimination half-life result is “under two”, the plasma half-life entry is “over 2 hrs” and the volume of distribution result is recorded as “around 15 liters”. Also, the bioavailability in [6] (oral) is given as 64 to 75%. For the same compound, the antibacterial activity result with bacteria is reported as “weak antibacterial activity”.
